Source: US9458105B2, “Inhibitors of Bruton's tyrosine kinase” (Hoffmann-La Roche Inc., priority 2012, dated 2016)

These compounds were tested against Bruton's Tyrosine Kinase (inactivated state) (Homo sapiens (Human), UniProt Q06187) (assay: Bruton's Tyrosine Kinase (BTK) Inhibition TR-FRET (Time Resolved FRET) competition assay). Details: BTK-Eu / Kinase Tracer 178 competition, incubated 18-24 h at 14° C.
Bruton's Tyrosine Kinase (inactivated state), sequence (Q06187 whole entry): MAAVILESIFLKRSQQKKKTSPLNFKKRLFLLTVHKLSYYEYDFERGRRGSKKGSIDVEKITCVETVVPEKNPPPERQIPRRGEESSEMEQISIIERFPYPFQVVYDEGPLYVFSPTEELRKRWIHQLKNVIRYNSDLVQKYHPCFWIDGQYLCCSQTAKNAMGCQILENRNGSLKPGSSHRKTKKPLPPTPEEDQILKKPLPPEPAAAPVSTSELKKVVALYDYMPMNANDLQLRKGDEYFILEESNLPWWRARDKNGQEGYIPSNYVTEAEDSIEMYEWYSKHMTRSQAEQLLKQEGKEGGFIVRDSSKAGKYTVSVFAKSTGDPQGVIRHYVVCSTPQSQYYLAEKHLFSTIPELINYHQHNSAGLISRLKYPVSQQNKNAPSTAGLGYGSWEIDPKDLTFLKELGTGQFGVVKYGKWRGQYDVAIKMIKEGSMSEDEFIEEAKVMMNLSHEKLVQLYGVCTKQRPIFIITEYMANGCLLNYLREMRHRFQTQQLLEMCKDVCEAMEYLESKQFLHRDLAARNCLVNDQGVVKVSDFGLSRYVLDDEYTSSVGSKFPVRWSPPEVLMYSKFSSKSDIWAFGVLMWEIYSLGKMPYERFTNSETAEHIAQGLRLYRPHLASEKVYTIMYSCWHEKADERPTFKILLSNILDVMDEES
Type: binding
Procedure: Bruton's Tyrosine Kinase (BTK) Inhibition TR-FRET (Time Resolved FRET) Assay
This BTK competition assay measures compound potency (IC50) for the inactivated state of Bruton's Tyrosine Kinase using FRET (Forster/Fluorescence Resonance Energy Transfer) technology. The BTK-Eu complex was incubated on ice one hour prior to use at a starting concentration of 50 nM BTK-Bioease™: 10 nM Eu-streptavidin (Perkin-Elmer Catalog #AD0062). The assay buffer consisted of 20 mM HEPES (pH 7.15), 0.1 mM DTT, 10 mM MgCl2, 0.5 mg/ml BSA with 3% Kinase Stabilizer (Fremont Biosolutions, Catalog #STB-K02). After 1 h, the reaction mixture from above was diluted 10 fold in assay buffer to make 5 nM BTK: 1 nM Eu-Streptavidin complex (donor fluorophore). 18 μl of a mixture of 0.11 nM BTK-Eu and 0.11 nM Kinase Tracer 178 (Invitrogen, Catalog #PV5593,) with BTK-Eu alone as no negative control, was then dispensed into 384-well flat bottom plates (Greiner, 784076). Compounds to be tested in assay were prepared as 10× concentrations and serial dilution in half-log increments was performed in DMSO so as to generate 10 point curves. To initiate the FRET reaction, compounds prepared as 10× stock in DMSO was added to the plates and the plates were incubated 18-24 h at 14° C.
After the incubation the plates were read on a BMG Pherastar Fluorescent plate reader (or equivalent) and used to measure the emission energy from the europium donor fluorophore (620 nm emission) and the FRET (665 nm emission). The negative control well values were averaged to obtain the mean minimum. The positive “no inhibitor” control wells were averaged to obtain the mean maximum. Percent of maximal FRET was calculated using following equation: % max FRET=100×[(FSRcmpd−FSRmean min)/(FSRmean max−FSRmean min)]
where FSR=FRET Signal ratio. % Max FRET curves were plotted in Activity Base (Excel) and the IC50(%), hill slope, z′ and % CV were determined. The mean IC50 and standard deviation will be derived from duplicate curves (singlet inhibition curves from two independent dilutions) using Microsoft Excel.
Representative compound data for this assay are listed below in Table II.
For CC(C)(C)c1cc(F)c2c(=O)n(Cc3ccc(-c4cc[nH]c(=O)c4)cc3)ncc2c1 [Compound I-1, 6-tert-Butyl-8-fluoro-2-[4-(2-oxo-1,2-dihydro-pyridin-4-yl)-benzyl]-2H-phthalazin-1-one], the IC50 was 3.32 µM.
With CC(C)(C)c1cc(F)c2c(=O)n(Cc3ccc(-c4cc[nH]c(=O)c4)cc3F)ncc2c1 [Compound I-2, 6-tert-Butyl-8-fluoro-2-[2-fluoro-4-(2-oxo-1,2-dihydro-pyridin-4-yl)-benzyl]-2H-phthalazin-1-one] the IC50 was 0.983 µM.
With CC(C)(C)c1cc(F)c2c(=O)n(-c3cccc(-c4cc[nH]c(=O)c4)c3CO)ncc2c1 [Compound I-3, 6-tert-Butyl-8-fluoro-2-[2-hydroxymethyl-3-(2-oxo-1,2-dihydro-pyridin-4-yl)-phenyl]-2H-phthalazin-1-one] the IC50 was 0.366 µM.
For CC(C)(C)c1cc(F)c2c(=O)n(Cc3c(F)cc(-c4cc[nH]c(=O)c4)cc3F)ncc2c1 [Compound I-4, 6-tert-Butyl-2-[2,6-difluoro-4-(2-oxo-1,2-dihydro-pyridin-4-yl)-benzyl]-8-fluoro-2H-phthalazin-1-one], the IC50 was 13.3 µM.
Compound CC(C)(C)c1cc(F)c2c(=O)n(Cc3ccc(-c4cc[nH]c(=O)c4)cc3CO)ncc2c1 [Compound I-5, 6-tert-Butyl-8-fluoro-2-[2-hydroxymethyl-4-(2-oxo-1,2-dihydro-pyridin-4-yl)-benzyl]-2H-phthalazin-1-one] has an IC50 of 3.14 µM.
In the case of Cn1cc(-c2cc(-c3ccc(Cn4ncc5cc(C(C)(C)C)cc(F)c5c4=O)c(F)c3)cc(=O)[nH]2)cn1 [Compound I-6, 6-tert-Butyl-8-fluoro-2-{2-fluoro-4-[6-(1-methyl-1H-pyrazol-4-yl)-2-oxo-1,2-dihydro-pyridin-4-yl]-benzyl}-2H-phthalazin-1-one], the IC50 is reported as 0.0142 µM.
For Cc1c(NC(=O)c2ccc(C(C)(C)C)cc2)cccc1-c1cc[nH]c(=O)c1 [Compound I-7, 4-tert-Butyl-N-[2-methyl-3-(2-oxo-1,2-dihydro-pyridin-4-yl)-phenyl]-benzamide], the IC50 was 6.91 µM.
For CC(C)(C)c1cc(F)c2c(=O)n(Cc3ccc(-c4cc[nH]c(=O)c4)c(CO)c3)ncc2c1 [Compound I-8, 6-tert-Butyl-8-fluoro-2-[3-hydroxymethyl-4-(2-oxo-1,2-dihydro-pyridin-4-yl)-benzyl]-2H-phthalazin-1-one], the IC50 was > 100 µM.
CC(C)(C)c1cc(F)c2c(=O)n(Cc3cc(CO)c(-c4cc[nH]c(=O)c4)cc3F)ncc2c1 [Compound I-9, 6-tert-Butyl-8-fluoro-2-[2-fluoro-5-hydroxymethyl-4-(2-oxo-1,2-dihydro-pyridin-4-yl)-benzyl]-2H-phthalazin-1-one] was tested, and the IC50 was 52.3 µM.
Work on Cn1cc(-c2cc(-c3ccc(CN4Cc5cc(C(C)(C)C)sc5C4=O)c(F)c3)cc(=O)[nH]2)cn1 [Compound I-10, 2-tert-Butyl-5-{2-fluoro-4-[6-(1-methyl-1H-pyrazol-4-yl)-2-oxo-1,2-dihydro-pyridin-4-yl]-benzyl}-4,5-dihydro-thieno[2,3-c]pyrrol-6-one] yielded an IC50 of 0.00711 µM.
